Read-outs that look alike come from different tables or passages of the source.

One test has as its target T1, human CB1 (hCB1) (Homo sapiens, UniProt P21554).
T1 construct: (cDNA clone) CNR01L000
The experiment in a line: 35S GTPγS binding assay, hCB1 agonist. It counts as biochemical. From the text: cDNA expression clones for human CB1 (hCB1, Genbank Accession No. AY225225) and human CB2 (hCB2, Genbank Accession No. AY242132) expressed in vector pcDNA3.1+ were purchased from UMR cDNA Resource Center, Rolla, Mo. (Clone ID CNR01L000 for hCB1; CNR0200000 for hCB2).
Stable, HEK-293-derived cell lines that recombinantly express hCBI or hCB2 were established. In brief, the clone hCB1 (CNR IL) or hCB2 (CNR2) was transfected into human embryonic kidney cells (HEK-293) using Lipofectamine 2000 (Gibco, Cat#11668-019) according to the manufacturer's protocol. Transfected clones were isolated by single colony purification and clones were screened for receptor expression using a whole cell, ^3H—CP 55,940 radioligand binding assay. HEK-293 stable cells were maintained in Dulbecco's modified Eagles medium (DMEM) containing 10% fetal bovine serum, 2 mM L-glutamine and 0.5 mg/mL G-418.
Membranes were isolated from transfected cells as follows. Monolayers of cultured cells were washed twice with phosphate-buffered saline (PBS). Cells were scraped into 20 mM HEPES, pH 7.4, 10 mM EDTA containing complete cocktail protease inhibitors (Roche, Catalog #11 697 498 001) and were homogenized by an electric-powered mechanical probe homogenizer (Omni GLH; probe G7-195S) for 40 seconds at 7000 rpm. Homogenates were centrifuged 10 minutes at 1000×g at 4° C. The supernatant was collected and was centrifuged for 1 hour at 40,000×g. The supernatant was then decanted and the resulting pellet was re-suspended in 20 mM HEPES, pH 7.4, 5 mM MgCl2, 1 mM EDTA, 10% sucrose with complete cocktail protease inhibitors. Protein concentration of membrane suspensions were measured by Bradford Protein Assay using bovine serum albumin as the standard (BioRad catalog #500-0006). Protein concentrations of membrane suspensions were adjusted with the final buffer in the range of 5 to 10 mg/mL and were stored at −80° C. until further use.
Functional assays which monitor G-protein coupled receptor or downstream cellular responses can be used to characterize potential CB1 receptor and/or CB2 receptor agonist or antagonist activities. Direct activation (or inhibition of activation) can be monitored using a GTPγS assay (membrane-based assay) or cAMP assay (whole cell-based assay).
^35S GTPγS binding assays were performed by incubating recombinant cell membranes prepared above (5 μg) in the presence of scintillation proximity assay beads (SPA beads, Catalog #RPNQ0252 GE Healthcare, Buckinghamshire, England) in GTPγS binding buffer [50 mM HEPES (pH 7.4), 100 mM NaCl, 5 mM MgCl2, 0.001% saponin (Sigma catalog #S4521)] supplemented with 20 uM GDP (Sigma catalog #G7127) in the presence or absence of test compound. The reaction was carried out in 96-well microplates with 0.1 nM [^35S]GTPγS (specific activity=1250 Ci/mmol; Perkin Elmer catalog #NEG030X250UC) in a final volume of 100 uL. After a 90 min room temperature incubation, the reaction was analyzed using a scintillation counter (Perkin Elmer Microbeta instrument). Binding data were analyzed using GraphPad Prism.

In test [1] the target is T2, recombinant human cannabinoid receptor CB2 (Homo sapiens, UniProt P34972).
T2 construct: (cDNA clone) CNR0200000
The experiment in a line: Cannabinoid receptor radioligand binding assay, [3H]-CP 55,940 displacement, hCB2. A digest of the protocol:
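Membranes from hCB2-transfected cells, prepared by 1000×g then 40,000×g centrifugation, resuspended in 20 mM HEPES pH 7.4, 5 mM MgCl2, 1 mM EDTA, 10% sucrose.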

In test [2] the target is T3, recombinant human cannabinoid receptor CB1 (Homo sapiens, UniProt P21554).
T3 construct: (cDNA clone) CNR01L000
Description: Cannabinoid receptor radioligand binding assay, [3H]-CP 55,940 displacement, hCB1. A digest of the protocol: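 Membranes from HEK-293 cells stably expressing human CB1, 2-10 μg protein, incubated 90 min at room temperature with 0.5 nM [3H]-CP 55,940 in Tris-HCl pH 7.5, MgCl2, EDTA and 0.1% fatty-acid-free BSA. Bound radioactivity counted after rapid filtration; nonspecific binding defined with 1 μM unlabeled CP 55,940.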

Where [3] appears, read: GTPγS agonist, HEK-293 membranes, read-out: hCB1 EC50 (GTPyS ag).

T1 sequence (P21554 whole entry): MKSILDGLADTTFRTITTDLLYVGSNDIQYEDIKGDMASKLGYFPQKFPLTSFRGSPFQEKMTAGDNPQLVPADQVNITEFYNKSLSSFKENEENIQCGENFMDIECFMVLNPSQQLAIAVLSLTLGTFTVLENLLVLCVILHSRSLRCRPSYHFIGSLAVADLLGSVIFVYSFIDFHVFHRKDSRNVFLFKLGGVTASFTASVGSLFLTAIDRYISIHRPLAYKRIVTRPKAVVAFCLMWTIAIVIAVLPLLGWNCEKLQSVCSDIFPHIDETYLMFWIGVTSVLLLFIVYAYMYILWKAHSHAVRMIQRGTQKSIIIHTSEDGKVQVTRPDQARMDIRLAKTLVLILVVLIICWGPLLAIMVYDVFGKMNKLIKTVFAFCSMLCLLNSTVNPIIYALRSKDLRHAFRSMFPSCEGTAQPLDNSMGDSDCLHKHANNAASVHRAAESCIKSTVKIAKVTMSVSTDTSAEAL
T3 sequence (P21554 whole entry): as above
T2 sequence (P34972 whole entry): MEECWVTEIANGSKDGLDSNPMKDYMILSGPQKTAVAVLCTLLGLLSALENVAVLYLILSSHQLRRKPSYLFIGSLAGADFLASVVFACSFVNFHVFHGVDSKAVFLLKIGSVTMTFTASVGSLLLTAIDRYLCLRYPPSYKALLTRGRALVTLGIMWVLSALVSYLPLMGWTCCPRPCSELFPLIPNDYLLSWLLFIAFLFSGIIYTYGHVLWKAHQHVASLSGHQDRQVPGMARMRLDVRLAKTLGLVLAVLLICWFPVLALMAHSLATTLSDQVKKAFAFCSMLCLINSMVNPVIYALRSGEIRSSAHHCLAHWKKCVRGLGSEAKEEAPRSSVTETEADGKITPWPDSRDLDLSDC

As to `Cc1cc2cc(C(=O)c3cc(Cl)ccc3Cl)sc2n1CCN1CCOCC1` [Compound 35, (2,5-Dichlorophenyl)(5-methyl-6-(2-morpholinoethyl)-6H-thieno[2,3-b]pyrrol-2-yl)methanone], on human CB1 (hCB1) (setting [3]), the EC50 (as a rule, the midpoint of the concentration-response curve) lay within 0.1 to 1 µM. The results for the IC50 in test [1] and in test [2] were below 0.1 µM and 0.1 to 1 µM, respectively.

Regarding `COCCN(C)CCn1c(C)cc2cc(C(=O)c3ccc(OC)nc3)sc21` [Compound 157], the EC50 on human CB1 (hCB1) (setting [3]) was above 10 µM. Also, in test [2], the IC50 (as a rule, the concentration that inhibits the measured activity by half) is 0.1 to 1 µM.

Turning to `Cc1ccc(C(=O)c2cc3cc(C)n(CCN4CCOCC4)c3s2)c(Cl)c1` [Compound 86, (2-Chloro-4-methylphenyl)(5-methyl-6-(2-morpholinoethyl)-6H-thieno[2,3-b]pyrrol-2-yl)methanone], the EC50 at human CB1 (hCB1) (setting [3]) was in the range of 1 to 10 µM. Besides, the IC50 in test [1] was below 0.1 µM; in test [2], 0.1 to 1 µM.

For `COc1ccc(C(=O)c2cc3cc(C)n(CC(OC)OC)c3s2)cn1` [Compound 161, (6-(2,2-dimethoxyethyl)-5-methyl-6H-thieno[2,3-b]pyrrol-2-yl)(6-methoxypyridin-3-yl)methanone], at human CB1 (hCB1) (setting [3]), the EC50 is above 10 µM. Also, the IC50 in test [2] is 0.1 to 1 µM.

As to `Cc1cc2cc(C(=O)c3ccc(O)cc3F)sc2n1CCN1CCOCC1` [Compound 165, (2-fluoro-4-hydroxyphenyl)(5-methyl-6-(2-morpholinoethyl)-6H-thieno[2,3-b]pyrrol-2-yl)methanone], the half-maximal effective concentration (EC50) at human CB1 (hCB1) (setting [3]) was above 10 µM. Further, the IC50 in test [2] lay within 0.1 to 1 µM.

With `COc1ccc(C(=O)c2cc3cc(C)n(CCC(C)(C)O)c3s2)cc1` [Compound 77, (6-(3-Hydroxy-3-methylbutyl)-5-methyl-6H-thieno[2,3-b]pyrrol-2-yl)(4-methoxyphenyl)methanone], the half-maximal effective concentration (EC50) on human CB1 (hCB1) (setting [3]) is below 0.1 µM. Moreover, the IC50 in test [1] and in test [2] was 1 to 10 µM throughout.

As for `COc1ccc(C(=O)c2cc3cc(C)n(CC4CCC(F)(F)CC4)c3s2)cn1` [Compound 170, (6-((4,4-difluorocyclohexyl)methyl)-5-methyl-6H-thieno[2,3-b]pyrrol-2-yl)(6-methoxypyridin-3-yl)methanone], on human CB1 (hCB1) (setting [3]), the EC50 is below 0.1 µM. In addition, the IC50 is 0.1 to 1 µM in test [1] and below 0.1 µM in test [2].

Regarding `COc1ccc(C(=O)c2cc3cc(C)n(CCCN4CCOCC4)c3s2)cc1` [Compound 107, (4-Methoxyphenyl)(5-methyl-6-(3-morpholinopropyl)-6H-thieno[2,3-b]pyrrol-2-yl)methanone], on human CB1 (hCB1) (setting [3]), the EC50 was in the range of 0.1 to 1 µM. Further, the IC50 in test [1] is below 0.1 µM; in test [2] it was 0.1 to 1 µM.

With `Cc1cc2cc(C(=O)c3ccccc3OC(F)(F)F)sc2n1CCN1CCOCC1` [Compound 15, (5-Methyl-6-(2-morpholinoethyl)-6H-thieno[2,3-b]pyrrol-2-yl)(2-(trifluoromethoxy)phenyl)methanone], the concentration giving a half-maximal response (EC50) at human CB1 (hCB1) (setting [3]) was in the range of 0.1 to 1 µM. The IC50 in test [1] and in test [2] was below 0.1 µM in each case.

Regarding `COc1ccc(C(=O)c2cc3cc(C)n(CCN4CCOCC4)c3s2)c(Cl)n1` [Compound 137, (2-chloro-6-methoxypyridinyl-3-yl)(5-methyl-6-(2-morpholinoethyl)-6H-thieno[2,3-b]pyrrol-2-yl)methanone], the concentration giving a half-maximal response (EC50) at human CB1 (hCB1) (setting [3]) was in the range of 1 to 10 µM. Also, the IC50 in test [1] is below 0.1 µM; in test [2] it was 1 to 10 µM.

Regarding `COc1ccc(C(=O)c2cc3cc(C)n(CCCNC(=O)C(F)(F)F)c3s2)cc1` [Compound 76, 2,2,2-Trifluoro-N-(3-(2-(4-methoxybenzoyl)-5-methyl-6H-thieno[2,3-b]pyrrol-6-yl)propyl)acetamide], the concentration for a half-maximal effect (EC50) on human CB1 (hCB1) (setting [3]) was below 0.1 µM. Further, the IC50 in test [1] lay within 0.1 to 1 µM; in test [2], 1 to 10 µM.

Turning to `COc1ccc(C(=O)c2cc3cc(C)n(CCN4CCSCC4)c3s2)cc1` [Compound 110, (4-Methoxyphenyl)(5-methyl-6-(2-thiomorpholinoethyl)-6H-thieno[2,3-b]pyrrol-2-yl)methanone], the IC50 was below 0.1 µM in test [1] and 1 to 10 µM in test [2].

As to `Cc1c(Cl)c2cc(C(=O)c3cccc(Cl)c3Cl)sc2n1CCN1CCOCC1` [Compound 27, (4-chloro-5-methyl-6-(2-morpholinoethyl)-6H-thieno[2,3-b]pyrrol-2-yl)(2,3-dichlorophenyl)methanone], the EC50 on human CB1 (hCB1) lay within 0.1 to 1 µM. The IC50 in test [1] and in test [2] was below 0.1 µM in each case.

As to `COc1ccc(C(=O)c2cc3cc(C)n(CCN4CCCCC4)c3s2)c(Cl)c1` [Compound 90, (2-Chloro-4-methoxyphenyl)(5-methyl-6-(2-(piperidin-1-yl)ethyl)-6H-thieno[2,3-b]pyrrol-2-yl)methanone], the IC50 in test [1] is below 0.1 µM; in test [2] it was 0.1 to 1 µM.

Consider `COc1ccc(Cn2c(C)cc3cc(C(=O)c4ccc(OC)cc4)sc32)cc1` [Compound 103, (6-(4-Methoxybenzyl)-5-methyl-6H-thieno[2,3-b]pyrrol-2-yl)(4-methoxyphenyl)methanone], for which the IC50 in test [1] lay in the range of 0.1 to 1 µM; in test [2] it was 1 to 10 µM.

For `Cc1cc2cc(C(=O)c3ccc(OC(F)(F)F)cc3)sc2n1CCN1CCOCC1` [Compound 65, (5-Methyl-6-(2-morpholinoethyl)-6H-thieno[2,3-b]pyrrol-2-yl)(4-(trifluoromethoxy)phenyl)methanone], the concentration for half-maximal inhibition (IC50) was 0.1 to 1 µM in test [1] and 1 to 10 µM in test [2].
